Assay results: paper PMC6102747 (Molecular Medicine Reports, 2018)
Where two headings read alike, the source gives them in different places.

Experiments:
Bcrp = experiment: Western blot protein expression in small intestine and liver; assay type: in vivo, rats; conditions: vs control
Pxr = experiment: RT-qPCR mRNA expression in small intestine and liver; assay type: in vivo, rats; conditions: small intestine, vs control, P<0.001
P-gp = experiment: Western blot protein expression in small intestine and liver; assay type: in vivo, rats; conditions: vs control
Cyp3a2 = assay type: in vivo, rats; conditions: vs control
[1] = Pharmacokinetics of CsA after oral administration; assay type: in vivo, Sprague-Dawley rats; conditions: rats; for increase in the CL/F of CsA / increase in the V/F of CsA / decrease in AUC0-t of CsA / decrease in AUC0-∞ of CsA / decrease in Cmax of CsA: oral CsA 10 mg/kg; for decrease in AUC0-t of CsA / decrease in AUC0-∞ of CsA / decrease in Cmax of CsA: vs control; for decrease in Cmax of CsA: P>0.05
[2] = liver, low-dose Q3GA 2.5 mg/kg i.v. 7 days, P<0.001
[3] = small intestine, high-dose Q3GA 10 mg/kg i.v. 7 days, P<0.01
[4] = small intestine, low-dose Q3GA 2.5 mg/kg i.v. 7 days, P<0.001
[5] = high-dose Q3GA 10 mg/kg i.v. 7 days
[6] = low-dose Q3GA 2.5 mg/kg i.v. 7 days
[7] = middle-dose Q3GA 5 mg/kg i.v. 7 days
[8] = liver, high-dose Q3GA 10 mg/kg i.v. 7 days, P<0.001

## O=c1c(O[C@@H]2O[C@H](CO)[C@@H](O)[C@H](O)[C@H]2O)c(-c2ccc(O)c(O)c2)oc2cc(O)cc(O)c12 [Q3GA, Quercetin-3-O-β-D-glucoside]
Bcrp; liver, high-dose Q3GA 10 mg/kg i.v. 7 days, P<0.05
  decrease in BCRP protein expression: 30.86%
Bcrp; [2]
  decrease in BCRP protein expression: 69.78%
Bcrp; liver, middle-dose Q3GA 5 mg/kg i.v. 7 days, P<0.05
  decrease in BCRP protein expression: 27.73%
Bcrp; [3]
  decrease in BCRP protein expression: 36.44%
Bcrp; [4]
  decrease in BCRP protein expression: 70.61%
Bcrp; small intestine, middle-dose Q3GA 5 mg/kg i.v. 7 days, P<0.05
  decrease in BCRP protein expression: 32.93%
Pxr; [5]
  increase in Pxr mRNA expression: 200.21%
Pxr; [6]
  increase in Pxr mRNA expression: 415.18%
Pxr; [7]
  increase in Pxr mRNA expression: 130.03%
P-gp; [8]
  decrease in P-gp protein expression: 47.26%
P-gp; [2]
  decrease in P-gp protein expression: 67.93%
P-gp; liver, middle-dose Q3GA 5 mg/kg i.v. 7 days, P<0.01
  decrease in P-gp protein expression: 39.92%
P-gp; small intestine, high-dose Q3GA 10 mg/kg i.v. 7 days, P<0.001
  decrease in P-gp protein expression: 41.70%
P-gp; [4]
  decrease in P-gp protein expression: 65.31%
P-gp; small intestine, middle-dose Q3GA 5 mg/kg i.v. 7 days, P<0.01
  decrease in P-gp protein expression: 30.22%
Cyp3a2; [8]
  decrease in CYP3A2 protein expression: 47.16%
Cyp3a2; [2]
  decrease in CYP3A2 protein expression: 54.18%
Cyp3a2; liver, middle-dose Q3GA 5 mg/kg i.v. 7 days, P<0.001
  decrease in CYP3A2 protein expression: 33.07%
Cyp3a2; [3]
  decrease in CYP3A2 protein expression: 38.67%
Cyp3a2; [4]
  decrease in CYP3A2 protein expression: 55.28%
Cyp3a2; small intestine, middle-dose Q3GA 5 mg/kg i.v. 7 days
  decrease in CYP3A2 protein expression: 21.68%
[1]; Q3GA 2.5, 5 or 10 mg/kg i.v. for 7 consecutive days
  effect on bioavailability of oral CsA: reduced the bioavailability of oral CsA
[1]; Q3GA 5 mg/kg daily i.v. 7 days
  increase in the CL/F of CsA: 72.71%
[1]; Q3GA 5 mg/kg daily i.v. 7 days, P<0.01
  increase in the V/F of CsA: 103.32%
[1]; Q3GA 10 mg/kg daily i.v. 7 days
  increase in the CL/F of CsA: 79.57%
[1]; Q3GA 10 mg/kg daily i.v. 7 days, P<0.05
  increase in the V/F of CsA: 93.19%
[1]; [5]
  decrease in AUC0-t of CsA: 47.79%
  decrease in AUC0-∞ of CsA: 46.30%
  decrease in Cmax of CsA: 40.41%
[1]; [6]
  decrease in AUC0-t of CsA: 34.26%
  decrease in AUC0-∞ of CsA: 34.66%
  decrease in Cmax of CsA: 33.12%
[1]; [7]
  decrease in AUC0-t of CsA: 36.32%
  decrease in AUC0-∞ of CsA: 34.81%
